Results on eleven compounds are retold here after PMC9920077, “Antimicrobial Natural Products from Plant Pathogenic Fungi” (Molecules, 2023).

pIC50: −log10 of the molar value. In brackets after ≈: the same amount, converted by molar mass. Like-named read-outs stand apart in the source and are kept apart here.

The subject of data set [1] is S. aureus ATCC 43300 (MRSA). The data set can be described thus: MIC against S. aureus ATCC 43300 (MRSA), CO-ADD. Particulars: for MIC: Staphylococcus aureus, read-out: MIC S. a. The data set is classed as cell-based, Staphylococcus aureus. The source says:
(§1) Antimicrobial evaluation of the pure compounds against A. baumannii ATCC 19606, Candida albicans ATCC 90028, Cryptococcus neoformans ATCC 208821, E. coli ATCC 25922, K. pneumoniae ATCC 700603, P. aeruginosa ATCC 27853, and S. aureus ATCC 43300 (MRSA) was undertaken at the Community for Open Antimicrobial Drug Discovery at The University of Queensland (St. Lucia, Queensland, Australia) according to standard protocols as previously described.

Data set [2] concerns E. coli ATCC 25922. The data set can be described thus: MIC against E. coli ATCC 25922, CO-ADD. The data set is classed as cell-based. Conditions: Escherichia coli.
Description: as §1

For data set [3], the system named is P. aeruginosa ATCC 27853. The data set can be described thus: MIC against P. aeruginosa ATCC 27853, CO-ADD. The data set is classed as cell-based. Conditions: Pseudomonas aeruginosa.
Description: as §1

For data set [4], the system named is A. baumannii ATCC 19606. Nature of the data set: MIC against A. baumannii ATCC 19606, CO-ADD. The data set is classed as cell-based. Particulars: Acinetobacter baumannii.
Description: as §1

Data set [5] concerns C. neoformans ATCC 208821. Nature of the data set: MIC against C. neoformans ATCC 208821, CO-ADD. In kind it is cell-based. Conditions: Cryptococcus neoformans.
Description: as §1

Data set [6] has as its system K. pneumoniae ATCC 700603. Nature of the data set: MIC against K. pneumoniae ATCC 700603, CO-ADD. Conditions: Klebsiella pneumoniae. The data set is classed as cell-based.
Description: as §1

Data set [7] relates to C. albicans ATCC 90028. Nature of the data set: MIC against C. albicans ATCC 90028, CO-ADD. The data set is classed as cell-based, Candida albicans. Conditions: for MIC: Candida albicans.
Description: as §1

Data set [8] deals with Sclerotinia sclerotiorum. The arrangement: method as in PMID 19333565, doi:10.1590/S0100-40422007000700012. Particulars: cited from earlier work.
For data set [9], the system named is S. cerevisiae. The arrangement: method as in PMID 19333565, doi:10.1590/S0100-40422007000700012. Conditions: cited from earlier work.
For data set [10], the system named is S. aureus. The arrangement: method as in PMID 19333565, doi:10.1590/S0100-40422007000700012. Particulars: cited from earlier work.
Data set [11] deals with E. coli. Also noted: method as in PMID 4629229. Particulars: disk diffusion assays; cited from earlier work.
Data set [12] concerns Mycobacteria tuberculosis. The arrangement: method as in PMID 19333565, doi:10.1590/S0100-40422007000700012. Particulars: cited from earlier work.
Data set [13] has as its system B. subtilis. Also noted: method as in PMID 19333565, doi:10.1590/S0100-40422007000700012. Conditions: cited from earlier work.
Data set [14] is described as follows: Cytotoxicity on HEK293 human embryonic kidney cells.
Description: (§2) All compounds were also evaluated for their cytotoxicity against human embryonic kidney cells (HEK-293) and any haemolytic activity against human red blood cells.
Data set [15] deals with M. marinum BSG101. Nature of the data set: Antimycobacterial bioluminescence assay of pure compounds, M. marinum. Conditions: Mycobacterium marinum, BSG101, 72 h.
Description: Antimicrobial evaluation against M. abscessus and M. marinum was undertaken using in-house assays with the bioluminescent derivatives M. abscessus BSG301 [63] and M. marinum BSG101 [64]. […] Specifically, mycobacterial cultures were grown with shaking at 200 rpm in Middlebrook 7H9 broth (Fort Richard, Auckland, New Zealand) supplemented with 10% Middlebrook ADC enrichment media (Fort Richard, Auckland, New Zealand), 0.4% glycerol (Sigma-Aldrich, St. Louis, MO, USA), and 0.05% tyloxapol (Sigma-Aldrich, St. Louis, MO, USA). M. abscessus was grown at 37 °C and M. marinum at 28 °C. Cultures were grown until they reached the stationary phase (approximately 3–5 days for M. abscessus BSG301 and 7–10 days for M. marinum BSG101) and then diluted in MHB supplemented with 10% Middlebrook ADC enrichment media and 0.05% tyloxapol to give an optical density at 600 nm (OD600) of 0.001, which is the equivalent of ~10^6 bacteria per mL. Pure compounds were dissolved in DMSO and added to the wells of a black 96-well plate (Nunc, Thermo Scientific, Waltham, MA, USA) at doubling dilutions with a maximum concentration of 128 mg/mL. […] Bacterial luminescence was measured at regular intervals over 72 h using a Victor X-3 luminescence plate reader with an integration time of 1 s. […]
Data set [16] deals with human red blood cells. Nature of the data set: Haemolytic activity on human red blood cells. Particulars: concentration of compound at 10% haemolytic activity on human red blood cells; mean of two experiments.
For data set [17], the system named is human red blood cells.
Data set [18] deals with HEK293 human embryonic kidney cells.
Description: as §2
Data set [19] concerns Microsporum gypseum. The arrangement: method as in PMID 4629229, PMID 9797310, PMID 19801865. Particulars: cited from earlier work.
The test system of data set [20] is Aspergillus fumigatus. Also noted: method as in PMID 4629229, PMID 9797310, PMID 19801865. Particulars: cited from earlier work.
In data set [21] the test system is Elymus repens. The arrangement: method as in PMID 25312126. Particulars: cited from earlier work.
For data set [22], the system named is Mycotypha microspora. The arrangement: method as in PMID 25312126. Particulars: cited from earlier work.
Data set [23] relates to Microbotryum violaceum. The arrangement: method as in doi:10.1002/ejoc.200800404. Particulars: agar diffusion assay; cited from earlier work.
In data set [24] the test system is Bacillus megaterium. The arrangement: method as in doi:10.1002/ejoc.200800404. Particulars: agar diffusion assay; cited from earlier work.
The subject of data set [25] is E. coli. The arrangement: method as in doi:10.1002/ejoc.200800404. Particulars: agar diffusion assay; cited from earlier work.
Setting [26] is: ATCC25922, E. coli ATCC 25922, mean of two experiments, read-out: MIC E. c.
[27] abbreviates: ATCC27853, P. aeruginosa ATCC 27853, mean of two experiments, read-out: MIC P. a.
Setting [28] is: ATCC19606, A. baumanii ATCC 19606, mean of two experiments, read-out: MIC A. b.
Where [29] appears, read: ATCC208821, C. neoformans ATCC 208821, mean of two experiments, read-out: MIC C. n.
The mark [30] stands for this setting: S. aureus ATCC 43300 (MRSA), mean of two experiments.
[31] abbreviates: ATCC700603, K. pneumoniae ATCC 700603, mean of two experiments, read-out: MIC K. p.
[32] abbreviates: ATCC90028, C. albicans ATCC 90028, mean of two experiments, read-out: MIC C. a.

As to `CN[C@H](CC(C)C)C(=O)N[C@H]1C(=O)N[C@@H](CC(N)=O)C(=O)N[C@H]2C(=O)N[C@H]3C(=O)N[C@H](C(=O)N[C@H](C(=O)O)c4cc(O)cc(O)c4-c4cc3ccc4O)[C@H](O)c3ccc(c(Cl)c3)Oc3cc2cc(c3O[C@@H]2O[C@H](CO)[C@@H](O)[C@H](O)[C@H]2O[C@H]2C[C@](C)(N)[C@H](O)[C@H](C)O2)Oc2ccc(cc2Cl)[C@H]1O` [vancomycin, reference compound], in data set [1], the MIC is 0.7 µM (≈ 1.01 µg/mL).

With `C/C1=C\C[C@]2(C)C(=O)C(O)=C([C@H](C)CO)[C@H]2C/C=C(\C)[C@@H](O)CC/C(C)=C/CC1` [compound 3, terpestacin], the MIC in data set [2] (setting [26]), in [3] (setting [27]), in [4] (setting [28]), in data set [5] (setting [29]), in data set [1] (setting [30]) and in data set [6] (setting [31]) was above 79 µM each time. For the same compound, the minimal inhibitory concentration (MIC) in data set [7] (setting [32]) was above 79 µM.

Consider `OC(Cn1cncn1)(Cn1cncn1)c1ccc(F)cc1F` [fluconazole, reference compound], for which the MIC was 26 µM (≈ 7.96 µg/mL) in data set [5] (setting [29]) and 0.4 µM (≈ 0.123 µg/mL) in data set [7] (setting [32]).

In the case of `CC1CCCCCC(=O)c2c(O)cc(O)cc2CC(=O)O1` (stereo not shown) [compound 5, curvularin], the “antimicrobial activity against Sclerotinia sclerotiorum” value in data set [8] was “inactive”. Besides, the MIC in data set [2] (setting [26]), in data set [3] (setting [27]), in [4] (setting [28]), in [5] (setting [29]), in [1] (setting [30]) and in [6] (setting [31]) was above 109 µM throughout. In data set [7] (setting [32]), the MIC is above 109 µM. Further, the “antimicrobial activity against S. cerevisiae” value in data set [9] is “inactive”. Moreover, in data set [10], the “antimicrobial activity against S. aureus” value was “inactive”. The “activity against E. coli” value in [11] is “none of the compounds were active”. For the same compound, in data set [12], the “antimicrobial activity against Mycobacteria tuberculosis” value is “inactive”. In data set [13], the “antimicrobial activity against B. subtilis” value is “inactive”.

`CC/C(=C(\c1ccccc1)c1ccc(OCCN(C)C)cc1)c1ccccc1` [tamoxifen, reference compound] showed a pIC50 in data set [14] (HEK-293 human embryonic kidney cells) of 4.62.

As for `C[C@H]1CCC/C=C/C(=O)c2c(O)cc(O)cc2CC(=O)O1` [compound 6, dehydro-curvularin], in data set [8], the “antimicrobial activity against Sclerotinia sclerotiorum” value is “inactive”. In addition, the MIC was above 110 µM in data set [2] (ATCC25922, read-out: MIC E. c); above 110 µM in data set [3] (ATCC27853, read-out: MIC P. a); 32 µg/mL (≈ 110 µM) in [15]; above 110 µM in data set [4] (ATCC19606, read-out: MIC A. b); above 110 µM in data set [5] (ATCC208821, read-out: MIC C. n); above 110 µM in data set [1]. The MIC was above 110 µM in data set [6] (ATCC700603, read-out: MIC K. p) and above 110 µM in data set [7] (ATCC90028, read-out: MIC C. a). Besides, in [9], the “antimicrobial activity against S. cerevisiae” value was “inactive”. Moreover, in data set [10], the “antimicrobial activity against S. aureus” value is “inactive”. Moreover, the “MIC against M. tuberculosis” value in [12] was 40 µM (≈ 11.6 µg/mL). Besides, the “antimicrobial activity against Mycobacteria tuberculosis” value in data set [12] is recorded as “active”. Further, in data set [13], the “antimicrobial activity against B. subtilis” value was “inactive”. The midpoint of cytotoxicity in data set [14], the CC50, lay at 1.27 µM. Moreover, the HC10 in data set [16] is above 110 µM.

For the compound `COc1c(CC(C)O)c2c3c(CC(C)O)c(OC)c(=O)c4c(O)cc5c(c6c(cc(O)c(c1=O)c62)OCO5)c43` (stereo not shown) [compound 7, cercosporin], the MIC in data set [2] (setting [26]) is above 60 µM; in data set [3] (setting [27]), above 60 µM; in [4] (setting [28]), above 60 µM; in data set [5] (setting [29]) it was above 60 µM; in [1] (setting [30]), at most 0.47 µM; in [6] (setting [31]), above 60 µM. In data set [7] (setting [32]), the MIC is above 60 µM. In addition, the “haemolytic activity” value in data set [17] is on record as “not haemolytic”. In data set [1] (MRSA), the “activity against MRSA” value is given as “potent activity”. This compound also came in with a CC50 in [14] of 25.3 µM. In [16], this compound displayed an HC10 above 60 µM.

As for `CC(O)CCC(O)/C=C/C(=O)O` (stereo not shown) [compound 1, (E)-4,7-dihydroxyoct-2-enoic acid], the MIC in data set [2] (setting [26]), in [3] (setting [27]), in [4] (setting [28]), in [5] (setting [29]), in [1] (setting [30]) and in [6] (setting [31]) was above 184 µM throughout. The MIC in data set [7] (setting [32]) was above 184 µM. Moreover, in data set [18], the “cytotoxicity” value is “no cytotoxic or haemolytic activity”.

`C[C@H]1CCC/C=C/[C@@H]2C[C@H](O)C[C@H]2[C@H](O)/C=C/C(=O)O1` [compound 8, brefeldin A]: the MIC in data set [2] (setting [26]), in data set [3] (setting [27]), in data set [4] (setting [28]), in [5] (setting [29]), in data set [1] (setting [30]) and in [6] (setting [31]) was above 114 µM each time. The MIC in data set [7] (setting [32]) worked out at 57 µM (≈ 16 µg/mL). In addition, the “activity against E. coli” value in [11] was “none of the compounds were active”. In addition, the “activity against Microsporum gypseum” value in data set [19] was “activity”. For the same compound, in data set [14], half-maximal cytotoxicity (CC50) was put at 0.89 µM. In addition, the “antifungal activity against C. albicans” value in [7] (C. albicans) is on record as “moderate antifungal activity”. The “activity against Aspergillus fumigatus” value in data set [20] is recorded as “activity”. The same compound came in with an HC10 in [16] above 114 µM.

Consider `C/C=C/c1cc2c(c(=O)o1)C(=O)[C@@H](O)[C@H](C)O2` [compound 2, radicinin], for which the MIC in data set [2] (ATCC25922, read-out: MIC E. c) was above 135 µM; in data set [3] (ATCC27853, read-out: MIC P. a), above 135 µM; in data set [4] (ATCC19606, read-out: MIC A. b) it was above 135 µM; in data set [5] (ATCC208821, read-out: MIC C. n), above 135 µM; in data set [1], above 135 µM; in data set [6] (ATCC700603, read-out: MIC K. p), above 135 µM. Moreover, the MIC in data set [7] (ATCC90028, read-out: MIC C. a) is above 135 µM. Moreover, the “antifungal activity against Elymus repens” value in data set [21] is recorded as “moderate antifungal activity”. Besides, the “antifungal activity against Mycotypha microspora” value in [22] is recorded as “moderate antifungal activity”.

With `C[C@@H]1CCC(=O)CCC(=O)O[C@H](C)CC[C@H](O)/C=C/C(=O)O1` [compound 4, tetrahydropyrenophorin], the MIC in data set [2] (setting [26]), in data set [3] (setting [27]), in data set [4] (setting [28]), in data set [5] (setting [29]), in data set [1] (setting [30]) and in [6] (setting [31]) was above 102 µM each time. In addition, in [7] (setting [32]), the MIC was above 102 µM. Further, the “antifungal activity against Microbotryum violaceum” value in data set [23] is given as “antifungal activity”. Also, the “antibacterial activity against Bacillus megaterium” value in [24] was “moderate antibacterial activity”. Moreover, in data set [25], the “antibacterial activity against E. coli” value is listed as “moderate antibacterial activity”.
